Measurements reported in patent US20150164064A1, “METHODS, COMPOSITIONS AND DEVICES FOR INDUCING STASIS IN CELLS, TISSUES, ORGANS, AND ORGANISMS” (Fred Hutchinson Cancer Research Center, priority 2003, published 2015).
Entries after “also recorded” stand apart in the source; their conditions may differ. Like-named read-outs stand apart in the source and are kept apart here.

Experiments:
mice [1] = experiment: Core body temperature, heart rate and movement of mice by telemetry in regulated H2S atmosphere; format: in vivo, mouse; settings: 80 ppm
From the text: Implantation of telemetry devices.
Exposure of Mice to Regulated Atmosphere.
Regulation of Ambient Temperature. […] Mice were exposed to regulated atmosphere as described above.

rats = settings: cited from earlier work
humans [2] = settings: 500 ppm; cited from earlier work
mice [3] = tested on: mice
mice [4] = settings: 80 ppm, cited from earlier work
[5] = tested on: wild-type C. elegans embryos (Bristol N2); experiment: Viability and suspended animation of nematodes in carbon monoxide based atmospheres (wild-type); format: in vivo
From the text: To achieve specific atmospheric conditions the following apparatus was used: a glass syringe barrel having a tip with a locking device such as a LUER-LOK with the large opening of the barrel sealed with a custom-machined steel and rubber fitting to make an airtight seal was locked to via locking device to the inlet port of an environmental chamber having an inlet and an outlet port each fitted with a locking devices such as a LUER-LOK fitting. A defined gas was humidified and provided to the environmental chamber by first venting the gas from a compressed tank (Byrne Specialty Gas, Seattle, Wash.) through a gas washing bottle (500 ml Kimex) filled with double distilled water. The gas washing bottle was connected to the environmental chamber past a gas-flow meter. A gas flow meter was used to provide a regulated 70 cc/min flow through the environmental chamber throughout the 24 hr incubation.
To test whether induced, reversible stasis could be achieved in C. elegans nematodes, 2-cell C. elegans embryos, L3 larvae or adult nematodes were collected and exposed to either an environment of effectively 100% CO, an environment of 100% N2, an environment comprising 500 ppm oxygen balanced with carbon monoxide, or to environments comprising 100, 500 or 1000 ppm oxygen balanced with nitrogen at room temperature. Nematodes were visualized using differential interference contrast microscopy (also known as Nomarski optics), images were collected and analyzed using NIH image and Adobe Photoshop 5.5. Embryos are approximately 50 μm in length.
Enviromental chambers and apparati. Oxygen deprivation experiments were carried out using a custom atmospheric chamber designed by W. Van Voorhies (Van Voorhies et al., 2000). The chamber is a 30 mL glass syringe (Fisher #14-825-10B) fitted with a custom steel stopper that is lined with two viton o-rings to ensure a tight seal. The stopper is bored through and has a steel lure lock on the exterior face so that a hose carrying compressed gas can be attached. A defined gas mixture is delivered to the chamber at a constant pressure and flow rate from compressed tanks by passing first through a rotometer (Aalborg, flow-tube number 032-41ST) or mass flow controller (Sierra Instruments #810) to monitor flow rate and then through a 500 ml gas washing bottle (Fisher #K28220-5001) containing 250 ml water to hydrate the gas. ¼″ OD nylon (Cole-Parmer #P-06489-06) or FEP (Cole-Parmer #A-06450-05) tubing was used and connections between tubing and the regulators and between the tubing and the rotometers were made with brass John-Guest-type fittings (Byrne Gas). All other connections were made with either microflow quick-connect fittings (Cole-Parmer #A-06363-57, #A-06363-52) or standard lure fittings (Cole-Parmer #A-06359-37, #A-06359-17).
Viability of nematodes in hypoxia. […] Log-phase, adult C. elegans were picked into a drop of sterile water containing 100 μg/ml ampicillin, 15 μg/ml tetracycline and 200 μg/ml streptomycin on a glass plate. Adults were chopped with a razor blade and 2-cell embryos were picked using a mouth pipet. 30-60 2-cell embryos were transferred to a small glass boat (custom made to fit atmospheric chambers, Avalon Glass Works, Seattle Wash.) filled with 3 ml of 1% agarose in M9. […] Embryos were scored for hatching 24 hours after exposure and hatched L1's were transferred to the surface of the NGM plate and followed to adulthood. […]

human keratinocytes = experiment: Preservation of human skin in carbon monoxide; keratinocyte growth and colony formation; format: cell-based
Protocol: Three human foreskins were obtained for this purpose. The foreskin tissue was preserved in keratinocyte growth medium (KGM) containing insulin, EGF (0.1 ng/ml), hydrocortisone ([…]) and bovine pituitary extract (approx. 50 micrograms/ml of protein). Foreskins were rinsed in PBS, and excess fatty tissue was removed. Each foreskin sample was divided into 2 equal pieces. Each piece was placed into a separate container containing a solution of PBS with 24 mg/ml of Dispase II (from Bacillus Polmyxa EC 3.4.24.4:Roche Diagnostics Corp., Indianapolis, Ind.). One container (containing a foreskin piece in PBS with Dispase II) was kept in a humid chamber in a fume hood. The other container (with the other half of the foreskin in PBS with Dispase II) was placed in the same fume hood in an environmental chamber perfused with humidified 100% CO. Both samples were maintained at room temperature for 24 hrs. Methods used to establish defined atmospheric conditions were identical to those used in Example 1. […]
Cells were inspected visually using an inverted phase contrast microscope. […] Quantitation of the number of viable keratinocytes as judged by colony formation was quantified for two of the three foreskins.

humans [6] = settings: cited from earlier work
hif-1(ia04) embryos = experiment: Viability and suspended animation of nematodes in carbon monoxide based atmospheres (hif-1 mutant); format: in vivo, C. elegans
From the text: Viability of nematodes in carbon monoxide based atmospheres. 30-60 embryos were harvested from continuously maintained Bristol N2 and […] strains as described above. Environmental chambers were continuously perfused at room temperature with pure CO (grade CP) or 500 ppm O2/CO at 70 cc/min for 24 hrs. To achieve 2500 ppm O2/CO or 2500 ppm O2/N2, 5000 ppm O2/N2 was mixed at a 1:1 ratio with either pure CO or pure N2 using two mass flow controllers (Sierra Instruments 810) to precisely monitor flow. Each gas was delivered into a 3-way valve (Cole-Parmer #A-30600-23) at 50 cc/min and the resulting mixture was then passed through a gas washing bottle and into an environmental chamber throughout the 24 hour exposure. All gases were supplied by Byrne Gas (Seattle, Wash.). The 500 ppm O2/CO mixture was certified to ±2% of the oxygen content and contained […] to ensure a consistent O2/CO ratio throughout the use of the tank.
Cell biological analysis. To determine the extent of developmental progression in nitrogen-based atmospheres (Table 2), 2-cell embryos were exposed to various degrees of hypoxia as described above and were either immediately photographed, or photographed following a […] recovery period in a humid chamber. […]

Question: Which “core body temperature repeatedly reached on demand” value (mice [1]) does the source give for `S` [H2S, hydrogen sulfide] here?
Answer: 13-15 °C

Question: And the “perinatal exposure effect on cerebellar Purkinje cells” value (rats; 20 or 50 ppm, 7 hours per day, gestation through post-natal day 21)?
Answer: longer dendritic branches with reduced aborization of cerebellar Purkinje cells

Question: And the “perinatal study, neuropathology and behavior of rat pups” value (rats; 80 ppm)?
Answer: no neuropathological effects or altered motor activity, passive avoidance, or acoustic startle response

Question: What about the “behavioral toxicity, avoidance responses” value (rats; moderate levels, immediately after end of exposure) of the same compound?
Answer: inhibits discriminated avoidance responses

Question: What about the “behavioral toxicity, maze learning” value (rats; moderate levels) of the same compound?
Answer: interferes with the ability of rats to learn a baited radial arm maze task

Question: And the “toxicology, gross and histopathological examination” value (rats; rats, 80 ppm, 6 hrs per day, 5 days per week, 90 days)?
Answer: no observed adverse effect

Question: And the “acute effect of extreme levels” value (humans [2])?
Answer: sudden collapse and unconsciousness

Question: What about the “behavior compared to untreated animals” value (mice [3]; after 80 ppm, cabinet 10.5°C) of the same compound?
Answer: no apparent change in the behavior

Question: And the “behavior tests (SHIRPA protocol) before and after exposure” value (mice [3]; after gas exposure)?
Answer: no detectable behavioral differences

Question: And the “behavior of the animals” value (mice [3]; four mice maintained for 4 weeks after 80 ppm, 6 hr, 15°C)?
Answer: no apparent change in the behavior

Question: And the tolerability (mice [4]; exposures up to ten weeks)?
Answer: innocuous

Question: What about the “toxicology, gross and histopathological examination” value (mice [4]; mice, 6 hrs per day, 5 days per week, 90 days) of the same compound?
Answer: no observed adverse effect

Question: Which suspended animation ([5]; 0.25 kPa O2 balanced with carbon monoxide, wild-type) does the source give for `[C-]#[O+]` [CO, carbon monoxide] here?
Answer: entered into suspended animation

Question: What about the suspended animation ([5]; 100% CO (101 kPa CO), 24 hrs) of the same compound?
Answer: entered into suspended animation

Question: And the suspended animation ([5]; 100% CO (101 kPa CO), 24 hrs, listed as carbon monoxide)?
Answer: induced reversible suspended animation

Question: And the lethality to nematodes ([5]; 100% CO, 24 hr, room temperature)?
Answer: not lethal

Question: What about the “suspended animation and survival” value ([5]; 500 ppm oxygen (0.05 kPa O2) balanced with carbon monoxide, 24 hrs) of the same compound?
Answer: entered into suspended animation and survived; also recorded: arrested embryogenesis

Question: What about the “keratinocyte growth (visual inspection)” value (human keratinocytes; all three populations, 100% CO 24 hr) of the same compound?
Answer: significant growth

Question: And the “cell survival in CO relative to room air” value (human keratinocytes; human skin, 100% CO, after 24 hrs)?
Answer: 100 fold

Question: What about the symptoms in humans (humans [6]; 50 ppm) of the same compound?
Answer: no symptoms

Question: What about the symptoms in humans (humans [6]; 200 ppm, within two-three hours) of the same compound?
Answer: slight headache

Question: And the symptoms in humans (humans [6]; 400 ppm, within one to two hours)?
Answer: frontal headache

Question: What about the symptoms in humans (humans [6]; 800 ppm, within 45 minutes) of the same compound?
Answer: dizziness, nausea, and/or convulsions

Question: What about the symptoms in humans (humans [6]; 800 ppm, within two hours) of the same compound?
Answer: insensible

Question: What about the lethality (humans [6]; around 1000 ppm, exposure more than around 1-2 minutes) of the same compound?
Answer: can expire

Question: And the “viability (survival) to adulthood” value (hif-1(ia04) embryos; 0.25 kPa O2/CO, 24 hrs, hif-1(ia04) embryos)?
Answer: 84.0%

Question: What about the suspended animation (hif-1(ia04) embryos; 0.25 kPa O2 balanced with carbon monoxide, hif-1(ia04)) of the same compound?
Answer: entered into suspended animation
